Values after ≈ are worked out from the molar mass of the structure shown. Each block holds one compound with its values, some of them ahead of it. Active and inactive are the calls of the source. The rule behind the calls is not given here.
Experiments:
[1] = Effect on ZFP36L2 level in human MV4-11 cells assessed as fold change at 100 nM measured after 4 hrs; type: functional
MV4-11 [2] = assay: Upregulation of p53 level in human MV4-11 cells measured after 4 hrs by immunoblot analysis; type: functional, cell-based
[3] = target: Protein cereblon/Bromodomain-containing protein 2 (Homo sapiens) (UniProt P25440+Q96SW2); assay: PROTAC activity at CRBN/BRD2 in human MV4-11 cells assessed as degradation of BRD2 incubated for 4 hrs by immunoblot analysis relative to control; type: cell-based
HD-MB03 = assay: Cytotoxicity against human HD-MB03 cells assessed as reduction in cell viability incubated for 72 hrs by cell-titer glo assay; type: functional, cell-based; conditions: HD-MB03, 72 h
[4] = Effect on TP53 level in human MV4-11 cells assessed as fold change at 100 nM measured after 4 hrs; type: functional
[5] = Effect on RNF166 level in human MV4-11 cells assessed as fold change at 100 nM measured after 4 hrs; type: functional
[6] = Volume of distribution in female CD1 mouse at 3 mg/kg, iv measured upto 24 hrs by LC-MS/MS analysis; type: ADME, organism-based; conditions: in vivo
[7] = target: T1, Protein cereblon/Bromodomain-containing protein 4/DNA damage-binding protein 1 (Homo sapiens) (UniProt O60885+Q96SW2+Q16531); assay: Binding affinity to his-tagged CRBN/DDB1/GST-tagged BRD4 (49 to 170 residues)(unknown origin) assessed as ternary complex formation by measuring AUC incubated for 1 hr by luminescence based Alphascreen assay; type: protein assay
[8] = Effect on FYTTD1 level in human MV4-11 cells assessed as fold change at 100 nM measured after 4 hrs; type: functional
[9] = Effect on CCNF level in human MV4-11 cells assessed as fold change at 100 nM measured after 4 hrs; type: functional
[10] = target: T2, Protein cereblon/Bromodomain-containing protein 4 (Homo sapiens, UniProt O60885+Q96SW2); assay: PROTAC activity at CRBN/Hibit-tagged BRD4 (unknown origin) expressed in HEK293 cells co-expressing LgBiT assessed as degradation of BRD4 incubated for 24 hrs by […] glo-max assay relative to control; type: cell-based
[11] = Effect on FGL2 level in human MV4-11 cells assessed as fold change at 100 nM measured after 4 hrs; type: functional
[12] = target: T1, Protein cereblon/Bromodomain-containing protein 4/DNA damage-binding protein 1 (Homo sapiens); assay: Binding affinity to his-tagged CRBN/DDB1/GST-tagged BRD4 (49 to 170 residues)(unknown origin) assessed as ternary complex formation (AUC) incubated for 1 hr by luminescence based Alphascreen assay; type: protein assay
[13] = AUC last in female CD1 mouse at 10 mg/kg, po measured upto 24 hrs by LC-MS/MS analysis; type: ADME, organism-based; conditions: in vivo
[14] = Effect on BRD3 level in human MV4-11 cells assessed as fold change at 100 nM measured after 4 hrs; type: functional
[15] = Effect on MCL1 level in human MV4-11 cells assessed as fold change at 100 nM measured after 4 hrs; type: functional
[16] = Oral bioavailability in female CD1 mouse at 10 mg/kg measured upto 24 hrs by LC-MS/MS analysis; type: ADME, organism-based; conditions: in vivo
[17] = target: T2, Protein cereblon/Bromodomain-containing protein 4; assay: PROTAC activity at CRBN/Hibit-tagged BRD4 (unknown origin) expressed in HEK293 cells co-expressing LgBiT assessed as degradation rate incubated for 24 hrs by […] glo-max assay; type: cell-based
[18] = Metabolic stability in mouse liver microsomes assessed as half life; type: ADME, Microsome; conditions: liver microsomes
[19] = Effect on PLAU level in human MV4-11 cells assessed as fold change at 100 nM measured after 4 hrs; type: functional
MV4-11 [20] = assay: Downregulation of c-Myc level in human MV4-11 cells measured after 4 hrs by immunoblot analysis; type: functional, cell-based
[21] = Permeability in MDCK-II cells incubated for 1 hr by UPLC/MS/UV analysis; type: ADME, cell-based, Canis lupus familiaris; conditions: dog, read-out: permeability
[22] = Effect on AURKA level in human MV4-11 cells assessed as fold change at 100 nM measured after 4 hrs; type: functional
HEK293 = assay: Cytotoxicity against HEK293 cells expressing LgBiT fused HiBiT-BRD2 measured after 24 hrs by cell titer-glo assay; type: toxicity, cell-based; conditions: human, hek293, 24 h
[23] = Chemical stability in human MV4-11 cell culture media at 400 uM measured upto 72 hrs by UPLC analysis; type: physicochemical
[24] = Effect on BRD2 level in human MV4-11 cells assessed as fold change at 100 nM measured after 4 hrs; type: functional
[25] = target: T2, Protein cereblon/Bromodomain-containing protein 4; assay: PROTAC activity at CRBN/BRD4 in human MV4-11 cells assessed as degradation of BRD4 incubated for 4 hrs by immunoblot analysis; type: cell-based
[26] = target: Protein cereblon/Bromodomain-containing protein 3 (Homo sapiens) (UniProt Q15059+Q96SW2); assay: PROTAC activity at CRBN/BRD3 in human MV4-11 cells assessed as degradation of BRD3 incubated for 4 hrs by immunoblot analysis relative to control; type: cell-based
[27] = Cmax in female CD1 mouse at 10 mg/kg, po measured upto 24 hrs by LC-MS/MS analysis; type: ADME, organism-based; conditions: in vivo
[28] = AUC in female CD1 mouse at 3 mg/kg, iv measured upto 24 hrs by LC-MS/MS analysis; type: ADME, organism-based; conditions: in vivo
[29] = Effect on NOP53 level in human MV4-11 cells assessed as fold change at 100 nM measured after 4 hrs; type: functional
[30] = Effect on MYC level in human MV4-11 cells assessed as fold change at 100 nM measured after 4 hrs; type: functional
[31] = Chemical stability in human HD-MB03 cell culture media at 400 uM measured upto 72 hrs by UPLC analysis; type: physicochemical
[32] = target: T2, Protein cereblon/Bromodomain-containing protein 4; assay: PROTAC activity at CRBN/Hibit-tagged BRD4 (unknown origin) expressed in HEK293 cells co-expressing LgBiT assessed as degradation of BRD4 incubated for 24 hrs by […] glo-max assay; type: cell-based
[33] = target: Protein cereblon (Homo sapiens) (UniProt Q96SW2); assay: Binding affinity to CRBN (unknown origin)
[34] = Stability in mouse plasma assessed as half life by UPLC-MS/MS analysis; type: ADME, cell-free
[35] = Effect on CCND3 level in human MV4-11 cells assessed as fold change at 100 nM measured after 4 hrs; type: functional
[36] = Effect on PLK1 level in human MV4-11 cells assessed as fold change at 100 nM measured after 4 hrs; type: functional
[37] = Effect on CDC42EP3 level in human MV4-11 cells assessed as fold change at 100 nM measured after 4 hrs; type: functional
[38] = Clearance in female CD1 mouse at 3 mg/kg, iv measured upto 24 hrs by LC-MS/MS analysis; type: ADME, organism-based; conditions: in vivo
[39] = Kinetic aqueous solubility of the compound at pH 7.4; type: physicochemical; conditions: read-out: Kinetic_solubility
[40] = Effect on BRD4 level in human MV4-11 cells assessed as fold change at 100 nM measured after 4 hrs; type: functional
[41] = Effect on NSA2 level in human MV4-11 cells assessed as fold change at 100 nM measured after 4 hrs; type: functional
MV4-11 [42] = assay: Cytotoxicity against human MV4-11 cells assessed as reduction in cell viability incubated for 72 hrs by cell-titer glo assay; type: functional, cell-based; conditions: MV4-11, 72 h
[43] = Terminal elimination half life in female CD1 mouse at 3 mg/kg, iv measured upto 24 hrs by LC-MS/MS analysis; type: ADME, organism-based; conditions: in vivo, read-out: beta t1/2 (converted)
[44] = Effect on ZBTB21 level in human MV4-11 cells assessed as fold change at 100 nM measured after 4 hrs; type: functional
[45] = Chemical stability in human HD-MB03 cell culture media assessed as half life; type: physicochemical
[46] = Permeability in human MV4-11 cells assessed as cell availability index relative to lenalidomide; type: ADME, cell-based
[47] = Chemical stability in human MV4-11 cell culture media assessed as half life; type: physicochemical

Activity [3]: > 90%
Vd [6]: 0.85 L/kg
Emax [10]: 96.9%
AUC(0-t) at 24 h [13]: 8060 ng·h/mL
bioavailability [16]: 45%
Activity [17]: 0.292 fRLU/hr
half-life [18]: 1.3 h
Papp at 1 h [21]: 1.7 ×10⁻⁶ cm/s
Stability [23]: Stable
DC50 [25]: 0.127 nM
Activity [26]: > 90%
Cmax [27]: 2440 ng/mL
AUC at 24 h [28]: 5540 ng·h/mL
Stability [31]: Stable
DC50 [32]: 0.19 nM
Activity [33]: Active
half-life [34]: 7.3 h
clearance [38]: 8.85 mL/min/kg
solubility kinetic [39]: 48.4 µM (≈ 36.5 µg/mL)
half-life [43]: 3.4 h
Structure (SMILES): Cc1sc2c(c1C)C(c1ccc(Cl)cc1)=N[C@@H](CC(=O)N1CCC(CN3CCN(c4ccc(C5CCC(=O)NC5=O)cc4)CC3)CC1)c1nnc(C)n1-2 (some centres undefined)
fold change (FC) [1]: -1.18
Activity (MV4-11 [2]): Active
IC50 (HD-MB03): 0.92 nM
fold change (FC) [4]: 1.92
fold change (FC) [5]: -0.12
AUC [7]: 281000
fold change (FC) [8]: -1.67
fold change (FC) [9]: -1.13
fold change (FC) [11]: -1.16
Activity [12]: Active
fold change (FC) [14]: -3.85
fold change (FC) [15]: -1.21
fold change (FC) [19]: -1.2
Activity (MV4-11 [20]): Active
fold change (FC) [22]: -0.97
Activity (HEK293): Non-toxic
fold change (FC) [24]: -3.52
fold change (FC) [29]: -0.91
fold change (FC) [30]: -2.05
fold change (FC) [35]: -0.99
fold change (FC) [36]: -0.81
fold change (FC) [37]: -1.38
fold change (FC) [40]: -3.85
fold change (FC) [41]: -1.05
IC50 (MV4-11 [42]): 0.12 nM
fold change (FC) [44]: -0.15

half-life [45]: 4.2 h
Ratio [46]: 140
half-life [47]: 4.2 h
Structure (SMILES): Cc1sc2c(c1C)C(c1ccc(Cl)cc1)=N[C@@H](CC(=O)NCCCCNC(=O)COc1cccc3c1C(=O)N(C1CCC(=O)NC1=O)C3=O)c1nnc(C)n1-2 (some centres undefined)
